Where a name gives a salt, the structure may show the parent alone.
Assays:
Details in all cases: 72 h
Caco-2 [1] = test: cell viability relative to DMSO; higher = less toxic
Calu-3 [2] = test: as above
HepG2 [3] = test: as above
U2OS [4] = test: as above
Caco-2 [5] = test: relative viability EC50 (midpoint between 100% and the lowest measured viability); higher = less toxic
Calu-3 [6] = test: as above
HepG2 [7] = test: as above
U2OS [8] = test: as above
Caco-2 [9] = test: drug sensitivity score (DSS) for viability; higher = more toxic; extreme values may be limits of the assay
Calu-3 [10] = test: as above
HepG2 [11] = test: as above
U2OS [12] = test: as above
Vero E6 [13] = test: cell viability relative to DMSO; higher = less toxic
Vero E6 [14] = test: drug sensitivity score (DSS) for viability; higher = more toxic; extreme values may be limits of the assay

Compound	cell viability (Caco-2 [1]; 1 nM) [%]	cell viability (Caco-2 [1]; 10 nM) [%]	cell viability (Caco-2 [1]; 100 nM) [%]	cell viability (Caco-2 [1]; 1000 nM) [%]	cell viability (Caco-2 [1]; 10000 nM) [%]	cell viability (Calu-3 [2]; 1 nM) [%]	cell viability (Calu-3 [2]; 10 nM) [%]	cell viability (Calu-3 [2]; 100 nM) [%]	cell viability (Calu-3 [2]; 1000 nM) [%]	cell viability (Calu-3 [2]; 10000 nM) [%]	cell viability (HepG2 [3]; 1 nM) [%]	cell viability (HepG2 [3]; 10 nM) [%]	cell viability (HepG2 [3]; 100 nM) [%]	cell viability (HepG2 [3]; 1000 nM) [%]	cell viability (HepG2 [3]; 10000 nM) [%]	cell viability (U2OS [4]; 1 nM) [%]	cell viability (U2OS [4]; 10 nM) [%]	cell viability (U2OS [4]; 100 nM) [%]	cell viability (U2OS [4]; 1000 nM) [%]	cell viability (U2OS [4]; 10000 nM) [%]	relative viability EC50 (Caco-2 [5]) [µM]	relative viability EC50 (Calu-3 [6]) [µM]	relative viability EC50 (HepG2 [7]) [µM]	relative viability EC50 (U2OS [8]) [µM]	drug sensitivity score (Caco-2 [9])	drug sensitivity score (Calu-3 [10])	drug sensitivity score (HepG2 [11])	drug sensitivity score (U2OS [12])	cell viability (Vero E6 [13]; 1 nM) [%]	cell viability (Vero E6 [13]; 10 nM) [%]	cell viability (Vero E6 [13]; 100 nM) [%]	cell viability (Vero E6 [13]; 1000 nM) [%]	cell viability (Vero E6 [13]; 10000 nM) [%]	drug sensitivity score (Vero E6 [14])
O=C(O)c1cn(-c2ccc(F)cc2)c2cc(N3CCNCC3)c(F)cc2c1=O [sarafloxacin]	98.3	87.3	95.6	98	97.4	93.1	95.7	102	99.7	101	113	98.8	101	94.4	99.6	101	108	99.2	100	97.4	> 10	> 10	> 10	> 10	0	0	0	0	–	–	–	–	–	–
Cc1c(-c2ccc(-c3ccccc3F)cc2)nc2ccc(F)cc2c1C(=O)O [brequinar]	123	93.8	93.4	105	111	96.4	93.9	101	106	99.6	105	104	95.6	59.2	41.8	98.2	93.1	103	103	103	> 10	> 10	0.563	> 10	0	0	8.3	0	92.9	93.3	93.5	66.3	64.2	6.6
C[C@H]1O[C@H](O[C@H]2[C@H](O)[C@@H](O)[C@@H](O[C@H]3[C@H](O)[C@@H](O)C(O)O[C@@H]3CO)O[C@@H]2CO)[C@H](O)[C@@H](O)[C@@H]1N[C@H]1C=C(CO)[C@@H](O)[C@H](O)[C@H]1O (stereo not given in full) [acarbose]	–	–	–	–	–	–	–	–	–	–	–	–	–	–	–	–	–	–	–	–	–	–	–	–	–	0	0	–	–	–	–	–	–	0
c1ccc(C(NCc2cccnc2)(c2ccccc2)c2ccccc2)cc1 [UCL-2077]	101	103	96.7	103	91.4	96.7	86.1	89.6	94.2	94.8	97.4	104	97.3	92.6	94.6	96.9	98.5	101	106	103	> 10	> 10	> 10	> 10	0	0	0	0	–	–	–	–	–	–
CNC1CCCN(c2c(F)cc3c(=O)c(C(=O)O)cn(C4CC4)c3c2OC)C1 (stereo not given) [balofloxacin]	105	98.3	98.4	93.3	99.9	104	94.8	101	97.7	102	114	97.5	93.1	104	104	113	102	97.5	103	93.2	> 10	> 10	> 10	> 10	0	0	0	0	–	–	–	–	–	–
CS(=O)(=O)c1ccc(-c2nnc(/C=C/c3nnc(-c4ccc(C#N)cc4)o3)n2-c2ccccc2Cl)nc1 [G007-LK]	104	108	93.1	83.1	94.1	105	93.4	67.1	66	77.2	107	106	101	92.8	89.5	94.7	98	91.8	85.8	83.5	> 10	–	> 10	> 10	2.6	11.1	0.1	1.4	99.2	105	95.1	61.7	57.8	7.5
N[C@H](Cc1cc(I)c(Oc2ccc(O)c(I)c2)c(I)c1)C(=O)O [liothyronine-(isomer)]	99.7	92.9	100	104	92.7	–	–	–	–	–	109	99.7	107	102	105	101	99.9	96.8	102	96	–	–	–	–	0	–	0	0	98.8	92.9	93.1	90.7	91.1	0
CC(=O)O[C@H]1C(=O)[C@@]2(C)[C@H]([C@H](OC(=O)c3ccccc3)[C@]3(O)C[C@H](OC(=O)[C@H](O)[C@@H](NC(=O)c4ccccc4)c4ccccc4)C(C)=C1C3(C)C)[C@]1(OC(C)=O)CO[C@@H]1C[C@@H]2O [paclitaxel]	109	84.8	61.7	57	48.7	97.9	64.3	62.6	68.5	65.7	108	64.9	42.8	36.5	34.4	101	67.9	32.9	30.3	26.3	0.0334	–	0.0095	0.0128	14.7	16.4	24.9	25.9	103	98.3	91.6	59.8	74.2	8.6
CCN(CCCOc1ccc2c(Nc3cc(CC(=O)Nc4cccc(F)c4)[nH]n3)ncnc2c1)CCOP(=O)(O)O [barasertib]	99.4	99.7	79.1	102	82.9	112	94.2	102	92.2	91.3	93.4	94.7	70.7	82.9	75	101	101	98	100	89.7	> 10	> 10	–	> 10	0.4	0	6	0	94.3	96.9	101	93.7	74.2	1.9
CC1CS(=O)(=O)CCN1/N=C/c1ccc([N+](=O)[O-])o1 (stereo not given) [nifurtimox]	–	–	–	–	–	–	–	–	–	–	–	–	–	–	–	–	–	–	–	–	–	–	–	–	–	0	0	0	–	–	–	–	–	0
O=C(O)c1cc(=O)[nH]c(=O)[nH]1 [orotic-acid]	105	94.8	92.6	80	102	103	98.7	97.6	99.6	100	106	117	98.6	106	100	102	101	104	97.7	99.4	> 10	> 10	> 10	> 10	0	0	0	0	–	–	–	–	–	–
COc1ccc(C2(CNC(=O)c3ccc(NC(=O)c4ccco4)cc3)CCOCC2)cc1 [JW-55]	101	91.6	97.8	92.1	93.6	–	–	–	–	–	100	117	94.9	102	89.3	103	95.9	97.8	95.2	90.8	> 10	–	> 10	> 10	0	–	0	0	103	108	97.3	102	62.6	1.6
CC(=O)O[C@H]1C[C@@]2(C)[C@@H](C[C@@H](O)[C@H]3[C@@]4(C)CC[C@@H](O)[C@@H](C)[C@@H]4CC[C@@]32C)/C1=C(\CCC=C(C)C)C(=O)O [fusidic-acid]	103	116	89.6	104	99.5	96	109	93.7	93.5	86.1	–	–	–	–	–	98.8	104	99.6	106	100	> 10	> 10	–	> 10	0	0.3	–	0	–	–	–	–	–	–
CC(C)Cc1ccc(C(C)C(=O)NO)cc1 (stereo not given) [ibuproxam]	–	–	–	–	–	–	–	–	–	–	–	–	–	–	–	–	–	–	–	–	–	–	–	–	–	0	0	0	–	–	–	–	–	0
CN(C)CC/C=C1/c2ccccc2COc2ccc(CC(=O)O)cc21 [Olopatadine hydrochloride (Opatanol)]	–	–	–	–	–	–	–	–	–	–	–	–	–	–	–	–	–	–	–	–	–	–	–	–	–	0	0	0	–	–	–	–	–	0
CN1CCC(NC(=O)c2cc(-c3c(O)cc(O)cc3Oc3ccc([N+](=O)[O-])cc3)on2)CC1 [NMS-E973]	99.1	97.8	101	61.3	33.7	93.7	101	90.4	68.4	44	108	101	55	0.9	0.9	94.2	103	99.5	28.2	3.7	0.874	0.669	0.108	0.65	8.3	7	23.6	13.6	109	100	106	108	62.2	1.4
O=C(OCC(COC(=O)c1cccnc1)(COC(=O)c1cccnc1)COC(=O)c1cccnc1)c1cccnc1 [niceritrol]	93.9	88.4	92.7	93.3	86.9	98.5	108	101	106	115	93.7	94.1	92.7	98.2	101	102	104	101	101	98.8	> 10	> 10	> 10	> 10	0	0	0	0	92.6	103	96.8	96.9	73.8	1.5
